The test system of one experiment is NB-4. Description: Cytotoxicity against human NB4 cells after 48 hrs by SRB assay. It counts as functional, cell-based. The following applies: NB-4, 48 h. In general terms: Sulforhodamine B stains cellular protein and so reports cell mass.
A further experiment addresses Histone deacetylase 5 (Homo sapiens, UniProt Q9UQL6). Description: Inhibition of human HDAC5.
The next experiment deals with T1, Histone deacetylase 8 (Homo sapiens, UniProt Q9BY41).
T1 sequence (Q9BY41 whole entry): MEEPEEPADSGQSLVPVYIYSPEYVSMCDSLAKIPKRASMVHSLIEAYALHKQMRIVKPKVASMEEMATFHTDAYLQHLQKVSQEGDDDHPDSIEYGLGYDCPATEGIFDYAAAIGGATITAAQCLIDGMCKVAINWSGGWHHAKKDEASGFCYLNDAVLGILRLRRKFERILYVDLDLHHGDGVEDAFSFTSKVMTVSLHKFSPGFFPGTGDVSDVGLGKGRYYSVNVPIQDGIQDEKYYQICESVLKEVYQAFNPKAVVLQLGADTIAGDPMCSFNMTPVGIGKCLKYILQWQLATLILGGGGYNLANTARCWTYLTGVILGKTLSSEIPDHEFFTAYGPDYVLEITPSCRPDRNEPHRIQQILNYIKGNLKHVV
Description: Inhibition of human HDAC8.

The next experiment concerns the target Histone deacetylase 9 (Homo sapiens, UniProt Q9UKV0). The experiment is described as follows: Inhibition of human HDAC9.
Another experiment has as its target T2, Histone deacetylase 11 (Homo sapiens, UniProt Q96DB2).
T2 sequence (Q96DB2 whole entry): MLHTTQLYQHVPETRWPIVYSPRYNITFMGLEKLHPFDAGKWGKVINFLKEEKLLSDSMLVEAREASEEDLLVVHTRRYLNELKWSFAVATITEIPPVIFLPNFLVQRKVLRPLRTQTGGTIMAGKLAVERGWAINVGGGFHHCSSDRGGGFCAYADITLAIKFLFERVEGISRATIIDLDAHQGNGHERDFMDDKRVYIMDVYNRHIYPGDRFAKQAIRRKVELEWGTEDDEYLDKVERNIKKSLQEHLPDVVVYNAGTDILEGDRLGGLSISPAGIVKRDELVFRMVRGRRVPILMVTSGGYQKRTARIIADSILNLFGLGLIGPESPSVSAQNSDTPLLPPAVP
Description: Inhibition of human HDAC11.

In the next experiment the target is Histone deacetylase 1 (Homo sapiens, UniProt Q13547).
Histone deacetylase 1, sequence (Q13547 whole entry): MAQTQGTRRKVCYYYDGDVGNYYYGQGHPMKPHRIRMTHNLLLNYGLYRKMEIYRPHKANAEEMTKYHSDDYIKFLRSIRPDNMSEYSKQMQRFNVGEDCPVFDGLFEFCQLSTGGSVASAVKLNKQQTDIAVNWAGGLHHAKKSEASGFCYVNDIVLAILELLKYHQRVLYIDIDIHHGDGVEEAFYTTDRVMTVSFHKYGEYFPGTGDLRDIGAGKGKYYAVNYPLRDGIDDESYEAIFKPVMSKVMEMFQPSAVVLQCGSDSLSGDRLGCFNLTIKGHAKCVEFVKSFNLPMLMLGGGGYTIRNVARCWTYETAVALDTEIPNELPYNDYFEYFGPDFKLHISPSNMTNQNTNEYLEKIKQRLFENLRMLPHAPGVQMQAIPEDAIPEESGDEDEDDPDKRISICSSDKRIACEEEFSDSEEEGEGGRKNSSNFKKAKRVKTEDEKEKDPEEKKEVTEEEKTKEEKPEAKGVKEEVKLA

Histone deacetylase 5, sequence (Q9UQL6 whole entry): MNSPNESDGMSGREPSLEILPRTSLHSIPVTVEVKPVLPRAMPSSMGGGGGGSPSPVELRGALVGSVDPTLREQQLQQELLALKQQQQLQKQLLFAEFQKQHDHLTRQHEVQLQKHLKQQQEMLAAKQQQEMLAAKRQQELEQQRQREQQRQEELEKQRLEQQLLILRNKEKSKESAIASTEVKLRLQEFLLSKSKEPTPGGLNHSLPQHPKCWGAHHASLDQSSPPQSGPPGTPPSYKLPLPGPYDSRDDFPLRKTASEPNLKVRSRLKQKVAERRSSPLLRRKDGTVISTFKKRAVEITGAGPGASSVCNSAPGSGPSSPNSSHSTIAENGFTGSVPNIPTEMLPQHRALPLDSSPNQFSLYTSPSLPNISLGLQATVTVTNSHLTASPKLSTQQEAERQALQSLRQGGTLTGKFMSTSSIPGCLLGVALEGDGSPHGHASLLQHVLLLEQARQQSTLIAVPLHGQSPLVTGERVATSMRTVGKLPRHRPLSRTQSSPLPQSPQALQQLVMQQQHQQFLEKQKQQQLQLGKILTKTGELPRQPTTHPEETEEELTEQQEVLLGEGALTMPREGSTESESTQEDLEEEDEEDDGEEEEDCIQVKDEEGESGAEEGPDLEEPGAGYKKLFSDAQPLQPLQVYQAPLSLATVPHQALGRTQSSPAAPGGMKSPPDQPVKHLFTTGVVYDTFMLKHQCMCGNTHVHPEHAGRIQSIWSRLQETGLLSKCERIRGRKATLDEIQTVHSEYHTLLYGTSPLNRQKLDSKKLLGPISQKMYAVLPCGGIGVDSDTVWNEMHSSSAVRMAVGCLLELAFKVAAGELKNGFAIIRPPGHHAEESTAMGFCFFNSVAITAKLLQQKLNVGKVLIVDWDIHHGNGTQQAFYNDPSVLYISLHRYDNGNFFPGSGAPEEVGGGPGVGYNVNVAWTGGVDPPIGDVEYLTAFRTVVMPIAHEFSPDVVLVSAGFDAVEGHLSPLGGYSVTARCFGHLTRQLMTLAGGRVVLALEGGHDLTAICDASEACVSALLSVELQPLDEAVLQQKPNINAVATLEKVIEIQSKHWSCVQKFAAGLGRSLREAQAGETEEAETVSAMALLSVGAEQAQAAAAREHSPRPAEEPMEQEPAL
Histone deacetylase 9, sequence (Q9UKV0 whole entry): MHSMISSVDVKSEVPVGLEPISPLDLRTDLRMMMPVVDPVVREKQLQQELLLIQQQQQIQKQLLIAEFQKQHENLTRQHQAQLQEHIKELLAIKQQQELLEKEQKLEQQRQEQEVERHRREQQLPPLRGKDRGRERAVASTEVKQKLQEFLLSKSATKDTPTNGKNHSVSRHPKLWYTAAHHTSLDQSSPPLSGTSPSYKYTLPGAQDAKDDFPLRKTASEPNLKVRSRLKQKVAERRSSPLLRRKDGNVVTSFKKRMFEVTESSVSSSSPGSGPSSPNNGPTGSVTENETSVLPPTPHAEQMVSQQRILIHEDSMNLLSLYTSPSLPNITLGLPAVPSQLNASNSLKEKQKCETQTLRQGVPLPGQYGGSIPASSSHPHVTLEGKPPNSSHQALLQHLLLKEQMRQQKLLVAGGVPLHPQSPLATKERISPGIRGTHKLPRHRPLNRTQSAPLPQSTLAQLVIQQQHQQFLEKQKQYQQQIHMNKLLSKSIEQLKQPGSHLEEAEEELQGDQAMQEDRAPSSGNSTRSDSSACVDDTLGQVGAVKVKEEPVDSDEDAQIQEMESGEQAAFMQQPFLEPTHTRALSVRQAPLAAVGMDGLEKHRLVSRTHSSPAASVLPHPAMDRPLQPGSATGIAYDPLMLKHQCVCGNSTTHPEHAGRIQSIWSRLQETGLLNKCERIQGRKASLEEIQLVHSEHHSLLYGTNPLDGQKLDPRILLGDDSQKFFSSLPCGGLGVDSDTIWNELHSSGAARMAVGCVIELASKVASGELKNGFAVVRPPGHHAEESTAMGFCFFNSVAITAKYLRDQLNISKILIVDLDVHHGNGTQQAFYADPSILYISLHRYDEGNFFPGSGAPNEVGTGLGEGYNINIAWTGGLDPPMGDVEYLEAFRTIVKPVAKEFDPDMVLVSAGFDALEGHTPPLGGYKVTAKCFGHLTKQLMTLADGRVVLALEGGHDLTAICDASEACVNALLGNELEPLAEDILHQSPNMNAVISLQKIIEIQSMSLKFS

One may read the IC50 as the concentration that inhibits the measured activity by half. Read a low IC50 as greater potency. `O=C(/C=C/c1ccc(/C=N/OCc2ccc([N+](=O)[O-])cc2)cc1)NO`: the 50% inhibitory concentration (IC50) in the experiment with NB-4 came out at 760 nM; at Histone deacetylase 5, 1160 nM; against Histone deacetylase 8 it was 70 nM; against Histone deacetylase 9 it was 2470 nM; on Histone deacetylase 11, 790 nM; against Histone deacetylase 1 it was 790 nM.
